From patent US9850283B2, “Macrocyclic inhibitors of the PD-1/PD-L1 and CD80(B7-1)/PD-L1 protein/protein interactions” (BRISTOL-MYERS SQUIBB COMPANY, priority 2013, dated 2017) come the findings set out here.

As usually defined, the IC50 is the midpoint of a concentration-inhibition curve.

Like-named read-outs stand apart in the source and are kept apart here. Starred links: 1 amine or outer side, 2 acyl side, 3 side chain; linkers in the order of their positions; H or OH if unused. Positions of bridges follow the written chain, without caps; N, C: chain ends. Non-standard residues stand in square brackets, D forms with d. Residues, ends and D or L forms follow the SMILES beside them. ξ: configuration not given here. X2 = CCOc1ccc(-c2[nH]c3ccccc3c2C[C@H](N[*:1])C(=O)[*:2])cc1; Ala(benzothiazol-2-yl) = N[C@@H](Cc1nc2ccccc2s1)C(=O)O; Pro(4S-NH2) = N[C@@H]1CN[C@H](C(=O)O)C1; Phe(3-Me) = Cc1cccc(C[C@H](N)C(=O)O)c1; Bta = N[C@@H](Cc1csc2ccccc12)C(=O)O; NMeF = CN[C@@H](Cc1ccccc1)C(=O)O; NMeNle = CCCC[C@H](NC)C(=O)O; ξR = N=C(N)NCCCC(N)C(=O)O; NMeA = CN[C@@H](C)C(=O)O; Dap = NC[C@H](N)C(=O)O; Sar = CNCC(=O)O A value given as a limit tells only on which side of the number the result lay.

For one test, the target named is T1, Human PD-L1/PD-1 (Homo sapiens, UniProt Q9NZQ7).
T1 construct: made in house; host or cells: HEK293T
Kind of test: HTRF PD-1-Ig/PD-L1-His binding assay (human PD-L1). The conditions noted are these: cluster symbol; read-out: HTRF IC50 cluster. A digest of the protocol:
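Interaction of Fc-tagged soluble PD-1 with His-tagged soluble PD-L1 is monitored by time-resolved FRET. Donor is europium cryptate anti-Ig (1 nM final) and acceptor is APC anti-His (20 nM final). Assay buffer is dPBS with 0.1% BSA and 0.05% Tween-20.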
For orientation: TR-FRET usually uses a lanthanide donor and a delayed reading to cut background.

The target in test [1] is T2, LK35.2-hPD-L1 cells / PE-labeled PD-1-Ig (Homo sapiens, UniProt Q9NZQ7).
T2 construct: expressed in transfected cells; host or cells: LK35.2 mouse B cell line
Kind of test: LK35.2-hPD-L1 cell binding high-content screening assay. The conditions noted are these: cluster symbol, read-out: CBA IC50 cluster. Format: cell-based. A digest of the protocol: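 Mouse LK35.2 B cells stably over-expressing human PD-L1, cultured overnight, treated with compound plus PE-labeled human PD-1-Ig (1 nM final) in RPMI/10% FCS for 1 h at 37 °C. After washing, bound fluorescence quantified by high-content imaging.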

Where [2] appears, read: cell line of CBA not given (LK35.2-hPD-L1 or 293T-hPD-L1).
Where [3] appears, read: cell binding assay, cell line not given.

T2 sequence (Q9NZQ7 19-290): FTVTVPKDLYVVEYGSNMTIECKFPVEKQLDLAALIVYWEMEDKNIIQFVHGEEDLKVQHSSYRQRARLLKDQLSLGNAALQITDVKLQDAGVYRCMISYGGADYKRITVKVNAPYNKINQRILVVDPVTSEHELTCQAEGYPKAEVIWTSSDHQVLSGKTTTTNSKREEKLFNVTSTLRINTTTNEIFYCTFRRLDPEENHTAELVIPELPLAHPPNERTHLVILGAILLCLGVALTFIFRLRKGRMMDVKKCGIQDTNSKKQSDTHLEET
T1 sequence (Q9NZQ7 with tags, fused parts or gaps): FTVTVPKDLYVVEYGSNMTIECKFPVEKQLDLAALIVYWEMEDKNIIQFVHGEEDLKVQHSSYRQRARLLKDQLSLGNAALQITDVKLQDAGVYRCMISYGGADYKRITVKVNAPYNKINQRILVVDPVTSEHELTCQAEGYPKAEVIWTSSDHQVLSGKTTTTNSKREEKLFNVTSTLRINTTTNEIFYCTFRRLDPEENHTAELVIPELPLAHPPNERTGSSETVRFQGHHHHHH

With `CC(C)C[C@@H]1NC(=O)[C@H](Cc2ccc(O)cc2)NC(=O)[C@H](Cc2c[nH]c3ccccc23)NC(=O)CN(C)C(=O)[C@H](Cc2ccc(O)cc2)NC(=O)[C@H](Cc2ccccc2)N(C)C(=O)[C@H](C(C)C)NC(=O)[C@H](CC(=O)O)NC(=O)CN(C)C(=O)[C@H](Cc2ccc(O)cc2)N(C)C(=O)[C@H](Cc2ccccc2)N(C)C(=O)[C@H](Cc2ccccc2)NC(=O)CSC[C@@H](C(=O)NCC(N)=O)NC1=O` [Example 3060-A] (HELM PEPTIDE1{[O=C(C[*:3])[*:2]].F.[meF].[meY].[Sar].D.V.[meF].Y.[Sar].W.Y.L.C.G.[am]}$PEPTIDE1,PEPTIDE1,1:R3-14:R3$$$V2.0), the IC50 on Human PD-L1/PD-1 fell in the range of 0.00676 to 0.0303 µM; in test [1] (setting [2]) it was 0.00478 to 0.0729 µM.

On to `CCCC[C@H]1C(=O)N(C)[C@@H](CCCC)C(=O)N[C@@H](CCCNC(=N)N)C(=O)N[C@H](C(=O)NCC(N)=O)CSCC(=O)N[C@@H](Cc2ccc(O)cc2)C(=O)N(C)[C@@H](C)C(=O)N[C@@H](CC(N)=O)C(=O)N2CCC[C@H]2C(=O)N[C@@H](Cc2cnc[nH]2)C(=O)N[C@@H](CC(C)C)C(=O)N2C[C@@H](N)C[C@H]2C(=O)N[C@@H](Cc2c[nH]c3ccccc23)C(=O)N[C@@H](CO)C(=O)N[C@@H](Cc2csc3ccccc23)C(=O)N1C` [Example 1037] ({CH2CO}-Y[NMeA]NPHL[Pro(4S-NH2)]WS[Bta][NMeNle][NMeNle]RCG-NH2; thioether N-14), for which the concentration for half-maximal inhibition (IC50) at Human PD-L1/PD-1 fell in the range of 0.00676 to 0.0303 µM; in test [1] (setting [2]) it was 0.000158 to 0.00471 µM.

In the case of `CCCC[C@H]1C(=O)N(C)[C@@H](CCCC)C(=O)NC(CCCNC(=N)N)C(=O)N[C@H](C(=O)NCC(N)=O)CSCC(=O)N[C@@H](Cc2ccc(O)cc2)C(=O)N(C)[C@@H](C)C(=O)N[C@@H](CC(N)=O)C(=O)N2CCC[C@H]2C(=O)N[C@@H](CN)C(=O)N[C@@H](CC(C)C)C(=O)N2CCC[C@H]2C(=O)N[C@@H](Cc2c[nH]c3ccccc23)C(=O)N[C@@H](CO)C(=O)N[C@@H](Cc2c(-c3ccc(OCC)cc3)[nH]c3ccccc23)C(=O)N1C` (stereo partly drawn) [Example 7011] ({CH2CO}-Y[NMeA]NP[Dap]LPWS[X2][NMeNle][NMeNle][ξR]CG-NH2; thioether N-14), the IC50 lay in the range of 0.000385 to 0.00674 µM on Human PD-L1/PD-1 and 0.00478 to 0.0729 µM in test [1] (setting [3]).

Take `CCCC[C@H]1C(=O)N(C)CC(=O)N[C@@H](CC(=O)O)C(=O)N[C@@H](C(C)C)C(=O)N(C)[C@@H](Cc2ccccc2)C(=O)N[C@@H](Cc2ccc(O)cc2)C(=O)N(C)CC(=O)N[C@@H](Cc2c[nH]c3ccccc23)C(=O)N[C@@H](Cc2nc3ccccc3s2)C(=O)N[C@@H](CC(C)C)C(=O)N[C@H](C(=O)NCC(N)=O)CSCC(=O)N[C@@H](Cc2ccccc2)C(=O)N(C)[C@@H](Cc2ccccc2)C(=O)N1C` [Example 3558] ({CH2CO}-F[NMeF][NMeNle][Sar]DV[NMeF]Y[Sar]W[Ala(benzothiazol-2-yl)]LCG-NH2; thioether N-13): the 50% inhibitory concentration (IC50) on Human PD-L1/PD-1 was more than 0.0305 µM; in test [1] (setting [3]), more than 0.0743 µM.

Take `CCCC[C@H]1C(=O)N(C)[C@@H](CCCC)C(=O)N[C@@H](CCCNC(=N)N)C(=O)N[C@H](C(=O)NCC(N)=O)CSCC(=O)N[C@@H](Cc2ccccc2)C(=O)N(C)[C@@H](C)C(=O)N[C@@H](CC(N)=O)C(=O)N2CCC[C@H]2C(=O)N[C@@H](Cc2cnc[nH]2)C(=O)N[C@@H](CC(C)C)C(=O)N(C)CC(=O)N[C@@H](Cc2cccc(C)c2)C(=O)N[C@@H](CO)C(=O)N[C@@H](Cc2c[nH]c3ccccc23)C(=O)N1C` [Example 1086] ({CH2CO}-F[NMeA]NPHL[Sar][Phe(3-Me)]SW[NMeNle][NMeNle]RCG-NH2; thioether N-14): the concentration for half-maximal inhibition (IC50) on Human PD-L1/PD-1 was more than 0.0305 µM; in test [1] (setting [2]), more than 0.0743 µM.

`CCCC[C@H]1C(=O)N(C)[C@@H](CCCC)C(=O)N[C@@H](CCCNC(=N)N)C(=O)N[C@H](C(=O)NCC(N)=O)CSCC(=O)N[C@@H](Cc2ccccc2)C(=O)N(C)[C@@H](C)C(=O)N[C@@H](CC(N)=O)C(=O)N2CCC[C@H]2C(=O)N[C@@H](Cc2cnc[nH]2)C(=O)N[C@@H](CO)C(=O)N(C)CC(=O)N[C@@H](Cc2c[nH]c3ccccc23)C(=O)N[C@@H](CO)C(=O)N[C@@H](Cc2c[nH]c3ccccc23)C(=O)N1C` [Example 6010] ({CH2CO}-F[NMeA]NPHS[Sar]WSW[NMeNle][NMeNle]RCG-NH2; thioether N-14): the IC50 was more than 0.0305 µM on Human PD-L1/PD-1 and more than 0.0743 µM in test [1] (setting [3]).
